In patent publication US20250255981A1, “IMMUNOMODULATORY ANTIBODY-DRUG CONJUGATES” (Seagen Inc., priority 2022, published 2025):
Values after ≈ are worked out from the molar mass of the structure shown.

Tested on: THP1-Dual™ cells (IRF-Lucia luciferase reporter)
Assay: THP1-Dual™ cell reporter assay
Assay type: cell-based, human
Conditions: ADC: drug linker conjugated to targeted mAb, 48 h; some values average of multiple experiments
Description: Potency of compounds and ADCs was evaluated using the THP1-Dual™ cells (Invivogen PN: thpd-nfis [also referred to as THP1 dual reporter cells]), which contain an IRF-Lucia luciferase reporter. Cells were cultured in RPMI-1640 (Gibco) with 10% heat-inactivated fetal bovine serum, Pen-Strep (100 U/mL-100 […], Gibco), HEPES (10 mM, Gibco)), sodium pyruvate (1 mM, Gibco), MEM non-essential amino acids (1×, Gibco), GlutaMAX (1×, Gibco), and beta-mercaptoethanol (55 μM, Gibco). Cells were plated in a 96-well flat bottom tissue culture-treated clear polystyrene plate (Corning Costar #3596) at ˜100,000 cells per well in 200 μL with the indicated concentration of the compound or ADC. The supernatant was harvested at 24 hours (compounds) or 48 hours (ADC) post plating for the reporter assay, or as indicated. To measure Lucia reporter signal, 10 µL of the supernatant was combined with 40 µL of QUANTI-Luc™ Luminescence assay reagent (Invivogen PN: rep-qlc1) in a 96-well clear flat bottom tissue culture-treated black polystyrene plate (Corning Costar #3603) and read on a Perkin Elmer Envision plate reader.

| Structure (SMILES) | EC50, Lucia reporter signal |
| --- | --- |
| CCn1nc(C)cc1C(=O)Nc1nc2cc(C(N)=O)cc(OC)c2n1C/C=C/Cn1c(NC(=O)c2ncccn2)nc2cc(C(N)=O)cc(OCCCN(C)C(=O)CCN3C(=O)C=CC3=O)c21 [compound 101] | >10,000 ng/mL |
| CCn1nc(C)cc1C(=O)Nc1nc2cc(C(N)=O)cc(OC)c2n1C/C=C/Cn1c(NC(=O)c2ccnnc2)nc2cc(C(N)=O)cc(OCCCN(C)C(=O)CCN3C(=O)C=CC3=O)c21 [compound 98] | >10,000 ng/mL |
| CCn1nc(C)cc1C(=O)Nc1nc2cc(S(N)(=O)=O)ccc2n1C/C=C/Cn1c(NC(=O)c2cc(C)nn2CC)nc2cc(C(N)=O)cc(OCCCN(C)C(=O)CCN3C(=O)C=CC3=O)c21 [Compound 25, (E)-7-(3-(3-(2,5-dioxo-2,5-dihydro-1H-pyrrol-1-yl)-N-methylpropanamido)propoxy)-2-(1-ethyl-3-methyl-1H-pyrazole-5-carboxamido)-1-(4-(2-(1-ethyl-3-methyl-1H-pyrazole-5-carboxamido)-5-sulfamoyl-1H-benzo[d]imidazol-1-yl)but-2-en-1-yl)-1H-benzo[d]imidazole-5-carboxamide] | 307 ng/mL (≈ 0.323 µM) |
| CCn1nc(C)cc1C(=O)Nc1nc2cc(S(N)(=O)=O)ccc2n1C/C=C/Cn1c(NC(=O)c2cc(C)nn2CC)nc2cc(C(N)=O)cc(OCCCOC3CN(C(=O)CCN4C(=O)C=CC4=O)C3)c21 [compound 146, (E)-7-(3-((1-(3-(2,5-dioxo-2,5-dihydro-1H-pyrrol-1-yl)propanoyl)azetidin-3-yl)oxy)propoxy)-2-(1-ethyl-3-methyl-1H-pyrazole-5-carboxamido)-1-(4-(2-(1-ethyl-3-methyl-1H-pyrazole-5-carboxamido)-5-sulfamoyl-1H-benzo[d]imidazol-1-yl)but-2-en-1-yl)-1H-benzo[d]imidazole-5-carboxamide] | >10,000 ng/mL |
| CCn1nc(C)cc1C(=O)Nc1nc2cc(C(=O)O)cc(OC)c2n1C/C=C/Cn1c(NC(=O)c2cc(C)nn2CC)nc2cc(C(=O)O)cc(OCCCN(C)C(=O)CCN3C(=O)C=CC3=O)c21 [compound 68, (E)-1-(4-(5-carboxy-2-(1-ethyl-3-methyl-1H-pyrazole-5-carboxamido)-7-methoxy-1H-benzo[d]imidazol-1-yl)but-2-en-1-yl)-7-(3-(3-(2,5-dioxo-2,5-dihydro-1H-pyrrol-1-yl)-N-methylpropanamido)propoxy)-2-(1-ethyl-3-methyl-1H-pyrazole-5-carboxamido)-1H-benzo[d]imidazole-5-carboxylic acid] | >10,000 ng/mL |
| CCn1nc(C)cc1C(=O)Nc1nc2cc(C(N)=O)cc(OC)c2n1C/C=C/Cn1c(NC(=O)c2ccnn2CC)nc2cc(C(N)=O)cc(OCCCN(C)C(=O)CCN3C(=O)C=CC3=O)c21 [compound 108] | 63.5 ng/mL (≈ 0.0682 µM) |
| CCn1nc(C)cc1C(=O)Nc1nc2cc(C(N)=O)cc(OC)c2n1C/C=C/Cn1c(NC(=O)c2cc(C)nn2C)nc2cc(C(N)=O)cc(OCCCN(C)C(=O)CCN3C(=O)C=CC3=O)c21 [compound 105] | 52.5 ng/mL (≈ 0.0564 µM) |
| CCn1nc(C)cc1C(=O)Nc1nc2cc(C(N)=O)cc(OC)c2n1C/C=C/Cn1c(NC(=O)c2cc(C)nn2CC)nc2cc(C(N)=O)cc(OCCC[N+](C)(C)Cc3ccc(O[C@@H]4O[C@H](C(=O)O)[C@@H](O)[C@H](O)[C@H]4O)cc3NC(=O)CCNC(=O)CCN3C(=O)C=CC3=O)c21.O=C([O-])C(F)(F)F [compound 134] | 10.3 ng/mL |
| CCn1nc(C)cc1C(=O)Nc1nc2cc(C(N)=O)cc(OC)c2n1C/C=C/Cn1c(NC(=O)c2cccnn2)nc2cc(C(N)=O)cc(OCCCN(C)C(=O)CCN3C(=O)C=CC3=O)c21 [compound 96] | >10,000 ng/mL |
| CCn1nc(C)cc1C(=O)Nc1nc2cc(C(=O)OC)cc(OC)c2n1C/C=C/Cn1c(NC(=O)c2cc(C)nn2CC)nc2cc(C(=O)OC)cc(OCCCN(C)C(=O)CCN3C(=O)C=CC3=O)c21 [compound 66, methyl (E)-7-(3-(3-(2,5-dioxo-2,5-dihydro-1H-pyrrol-1-yl)-N-methylpropanamido)propoxy)-2-(1-ethyl-3-methyl-1H-pyrazole-5-carboxamido)-1-(4-(2-(1-ethyl-3-methyl-1H-pyrazole-5-carboxamido)-7-methoxy-5-(methoxycarbonyl)-1H-benzo[d]imidazol-1-yl)but-2-en-1-yl)-1H-benzo[d]imidazole-5-carboxylate] | >10,000 ng/mL |
| CCn1nc(C)cc1C(=O)Nc1nc2cc(C(N)=O)cc(OC)c2n1C/C=C/Cn1c(NC(=O)c2cc(C)nn2CC)nc2cc(C(N)=O)cc(OCCCN(C)C(=O)[C@H](CC(=O)O)NC(=O)CCN3C(=O)C=CC3=O)c21 [Compound 17, (S,E)-4-((3-((5-carbamoyl-1-(4-(5-carbamoyl-2-(1-ethyl-3-methyl-1H-pyrazole-5-carboxamido)-7-methoxy-1H-benzo[d]imidazol-1-yl)but-2-en-1-yl)-2-(1-ethyl-3-methyl1H-pyrazole-5-carboxamido)-1H-benzo[d]imidazol-7-yl)oxy)propyl)(methyl)amino)-3-(3-(2,5-dioxo-2,5-dihydro-1H-pyrrol-1-yl)propanamido)-4-oxobutanoic acid] | 2.2 ng/mL (≈ 0.00208 µM) |
| CCn1nc(C)cc1C(=O)Nc1nc2cc(C(N)=O)cc(OC)c2n1C/C=C/Cn1c(NC(=O)c2cc(C)nn2CC)nc2cc(C(N)=O)cc(OCCCN(C)C(=O)[C@@H](NC(=O)CCN3C(=O)C=CC3=O)[C@@H](C)OC)c21 [compound 125] | 1.4 ng/mL (≈ 0.00132 µM) |
| CCn1cc(C(=O)Nc2nc3cc(C(N)=O)cc(OCCCN(C)C(=O)CCN4C(=O)C=CC4=O)c3n2C/C=C/Cn2c(NC(=O)c3cc(C)nn3CC)nc3cc(C(N)=O)cc(OC)c32)c(C)n1 [compound 102] | >10,000 ng/mL |
| CCn1nc(C)cc1C(=O)Nc1nc2cc(C(N)=O)cc(OC)c2n1C/C=C/Cn1c(NC(=O)c2cc(C)nn2CC)nc2cc(C(N)=O)cc(OCCCN(C)C(=O)[C@H](Cc3ccccc3)NC(=O)CCN3C(=O)C=CC3=O)c21 [compound 122] | 5.6 ng/mL (≈ 0.00513 µM) |
| CCn1nc(C)cc1C(=O)Nc1nc2cc(C(=O)OC)cc(OC)c2n1C/C=C/Cn1c(NC(=O)c2cc(C)nn2CC)nc2cc(C(=O)OC)cc(OCCCN(C)C(=O)OCc3ccc(O[C@@H]4O[C@H](C(=O)O)[C@@H](O)[C@H](O)[C@H]4O)cc3NC(=O)CCNC(=O)CCN3C(=O)C=CC3=O)c21 [compound 67] | >10,000 ng/mL |
| CCn1nc(C)cc1C(=O)Nc1nc2cc(C(N)=O)cc(OC)c2n1C/C=C/Cn1c(NC(=O)c2cc(C)nn2CC)nc2cc(C(N)=O)cc(OCCCN(C(=O)CCN3C(=O)C=CC3=O)C3CC3)c21 [compound 133, (E)-1-(4-(5-carbamoyl-2-(1-ethyl-3-methyl-1H-pyrazole-5-carboxamido)-7-methoxy-1H-benzo[d]imidazol-1-yl)but-2-en-1-yl)-7-(3-(N-cyclopropyl-3-(2,5-dioxo-2,5-dihydro-1H-pyrrol-1-yl)propanamido)propoxy)-2-(1-ethyl-3-methyl-1H-pyrazole-5-carboxamido)-1H-benzo[d]imidazole-5-carboxamide] | 12.2 ng/mL (≈ 0.0126 µM) |

Same assay, conditions: Homo sapiens, THP1-Dual; small molecules, 24 h; >10,000 nM = minimal activity up to 10 μM; some values average of multiple experiments; read-out: EC50, Lucia reporter signal

| Structure (SMILES) | EC50 [nM] |
| --- | --- |
| CCn1nc(C)cc1C(=O)Nc1nc2cc(C(N)=O)cc(OC)c2n1C/C=C/Cn1c(NC(=O)c2cc(C)nn2CC)nc2cc(C(N)=O)cc(OCCCN(C)C(=O)[C@H](CC(=O)OC)NC(=O)CCN3C(=O)CC(SC[C@H](N)C(=O)O)C3=O)c21 (some centres unmarked) [compound 72] | 275 |
